Patent publication US10703764B2, “Benzopiperazine compositions as BET bromodomain inhibitors” (FORMA Therapeutics, Inc., priority 2013, dated 2020)
pIC50: −log10 of the molar value.

Key:
BRD4 BD1 = molecular target: T1, BRD4 BD1 (Homo sapiens, UniProt O60885); experiment: AlphaScreen binding assay, BRD4 Bromodomain 1
T1 construct: made in house
Experimental: (§1) The binding of Example compounds to BRD4 Bromodomain 1 and BRD4 Bromodomain 2 was assessed using 384-well AlphaScreen assay technology. His-epitope tagged BRD4 BD144-168 and BRD4 BD2333-460 were cloned, expressed, and purified to homogeneity. BRD4 BD1 and BRD4 BD2 binding and inhibition was assessed by monitoring the engagement of biotinylated Histone H4 (1-21) K5/8/12/16 tetra-acetylated peptide with the targets using the AlphaScreen technology (PerkinElmer). Specifically, in a 384-well black or white flat bottom plate, BRD4 BD1 (50 nM final) or BRD4 BD2 (100 nM final) was combined with peptide (50 nM final for BD1 or 100 nM final for BD2) in 50 mM HEPES (pH 7.3), 100 mM NaCl, 0.1% (w/v) BSA, and 0.01% (w/v) Triton X-100 either in the presence of DMSO (final 1.25% DMSO) or compound dilution series in DMSO. Alpha streptavidin donor beads and Nickel-chelate acceptor beads were added to a final concentration of 10 μg/ml each. After a minimum of 1 hour equilibration, plates were read on a BMG PHERAstar FS multi-label reader (BMG LabTech). The half maximal inhibitory concentration (IC50) values were calculated using IDBS Activity Base software with a four parameter logistic curve fit by the equation y=A+((B−A)/(1+((C/x)^D))), wherein A denotes the bottom plateau of the curve, B denotes the top plateau of the curve, C denotes the x value at the middle of the curve, D denotes the slope factor, x denotes the original known x values, and y denotes the original known y values. Data was fitted using the Levenburg Marquardt algorithm.

BRD4 BD2 = molecular target: T2, BRD4 BD2 (Homo sapiens, UniProt O60885); experiment: AlphaScreen binding assay, BRD4 Bromodomain 2
T2 construct: made in house
Experimental: as §1

Structure (SMILES) | pIC50 (BRD4 BD1) | pIC50 (BRD4 BD2)
CC(=O)N1c2ccc(-c3ccc(S(C)(=O)=O)cc3)cc2N(C(=O)N(C)C)C[C@@H]1C [Example I-248] | < 5.00 | 6.30 to 7.30
COCCOC(=O)N1C[C@H](C)N(C(C)=O)c2ccc(-c3ccc(S(C)(=O)=O)cc3)cc21 [Example I-249] | 5.00 to 6.00 | < 6.30
CNC(=O)N1C[C@H](C)N(C(C)=O)c2ccc(-c3ccc(S(C)(=O)=O)cc3)cc21 [Example I-253] | < 5.00 | < 6.30
CC(=O)N1c2ccc(-c3ccc(S(C)(=O)=O)cc3)nc2N(C(=O)OC(C)C)C[C@@H]1C [Example I-254] | 5.00 to 6.00 | < 6.30
CC(=O)N1c2ccc(-c3cnn(C4CC4)c3)nc2N(C(=O)OC(C)C)C[C@@H]1C [Example I-255] | 5.00 to 6.00 | 6.30 to 7.30
CC(=O)N1c2ccc(-c3cnn(C)c3C)cc2N(C(=O)c2ccco2)C[C@@H]1C [Example I-270] | 5.00 to 6.00 | 6.30 to 7.30
CC(=O)N1c2ncc(-c3ccc(S(C)(=O)=O)cc3)cc2N(C(=O)c2ccco2)C[C@@H]1C [Example I-271] | 5.00 to 6.00 | 6.30 to 7.30
CC(=O)N1c2ncc(-c3ccc(C(=O)N(C)C)cc3)cc2N(C(=O)c2ccco2)C[C@@H]1C [Example I-272] | 5.00 to 6.00 | 6.30 to 7.30
CCCn1cc(-c2cnc3c(c2)N(C(=O)c2ccco2)C[C@H](C)N3C(C)=O)cn1 [Example I-273] | 5.00 to 6.00 | < 6.30
CC(=O)N1c2ccc(-c3cnc(N)nc3)cc2N(C(=O)c2ccco2)C[C@@H]1C [Example I-296] | 5.00 to 6.00 | 6.30 to 7.30
CC(=O)N1c2ccc(-c3ccc(S(C)(=O)=O)cc3)cc2N(C(=O)OC(C)C)C[C@H]1C [Example I-297] | < 5.00 | < 6.30
CC(=O)N1c2ccc(-c3ccc(N4CCCC4)cc3)cc2N(C(=O)c2ccco2)C[C@@H]1C [Example I-298] | 5.00 to 6.00 | 6.30 to 7.30
CC(=O)N1c2ccc(-c3ccc(S(C)(=O)=O)cc3)nc2N(C(=O)c2ccco2)C[C@@H]1C [Example I-300] | 5.00 to 6.00 | 6.30 to 7.30
CC(=O)N1c2ccc(-c3ccc(S(C)(=O)=O)cc3)nc2N(C(=O)C2CC2)C[C@@H]1C [Example I-301] | 5.00 to 6.00 | < 6.30
CC(C)OC(=O)N1C[C@H](C)N(C(=O)C2CC2)c2ccc(-c3cnn(CC(=O)N(C)C)c3)cc21 [Example I-311] | 5.00 to 6.00 | 6.30 to 7.30
CC(=O)N1c2ccc(-c3c(C)n[nH]c3C)cc2N(C(=O)OC(C)C)CC1C (centres unmarked) [Example I-333] | 5.00 to 6.00 | < 6.30
CC(=O)N1c2ccc(-c3cnn(-c4ccccc4)c3)cc2N(C(=O)OC(C)C)C[C@@H]1C [Example I-334] | 5.00 to 6.00 | < 6.30
CC(=O)N1c2ccc(-c3c[nH]nc3C(F)(F)F)cc2N(C(=O)OC(C)C)CC1C (centres unmarked) [Example I-335] | 5.00 to 6.00 | < 6.30
CC(=O)N1c2ccc(-c3cnn(C)c3C)cc2N(C(=O)OC(C)C)C[C@@H]1C [Example I-339] | 5.00 to 6.00 | 6.30 to 7.30
CC(C)OC(=O)N1C[C@H](C)N(C(=O)C2CC2)c2ccc(-c3cnn(CC(=O)O)c3)cc21 [Example I-340] | 5.00 to 6.00 | < 6.30
COC(=O)N1c2ccc(-c3cnn(CC(=O)O)c3)cc2N(C(=O)OC(C)C)C[C@@H]1C [Example I-341] | 5.00 to 6.00 | 6.30 to 7.30
CC(=O)N1c2ccc(-c3cnn(CCO)c3)cc2N(C(=O)C2CC2)C[C@@H]1C [Example I-342] | 5.00 to 6.00 | 6.30 to 7.30
CC(=O)N1c2ccc(-c3cnn(CC(C)(C)O)c3)cc2N(C(=O)C2CC2)C[C@@H]1C [Example I-343] | 5.00 to 6.00 | 6.30 to 7.30
CC(=O)N1c2ccc(-c3cnn(CCS(C)(=O)=O)c3)cc2N(C(=O)C2CC2)CC1C (centres unmarked) [Example I-344] | 5.00 to 6.00 | 6.30 to 7.30
CC(C)OC(=O)N1C[C@H](C)N(C(C)C2CC2)c2ccc(-c3cnn(C4CNC4)c3)cc21 (some centres unmarked) [Example I-357] | 5.00 to 6.00 | 6.30 to 7.30
COC(=O)N1c2ccc(-c3cnn(C4CNC4)c3)cc2N(C(=O)OC(C)C)C[C@@H]1C [Example I-358] | 5.00 to 6.00 | 6.30 to 7.30
C[C@H]1CN(C(=O)c2ccco2)c2cc(-c3ccc(S(C)(=O)=O)cc3)ccc2N1C(=O)C(F)(F)F [Example I-361] | < 5.00 | < 6.30
C[C@H]1CN(C(=O)c2ccco2)c2cc(-c3ccc(C(=O)N(C)C)cc3)ccc2N1C(=O)C(F)(F)F [Example I-362] | < 5.00 | < 6.30

Structure (SMILES) | pIC50 (BRD4 BD1) | pIC50 (BRD4 BD2)
CCCn1cc(-c2ccc3c(c2)N(C(=O)c2ccco2)C[C@H](C)N3C(=O)C(F)(F)F)cn1 [Example I-363] | 5.00 to 6.00 | 6.30 to 7.30
C[C@H]1CN(C(=O)c2ccco2)c2cc(-c3ccc(S(C)(=O)=O)cc3)ccc2N1C(=O)CO [Example I-367] | < 5.00 | < 6.30
COCC(=O)N1c2ccc(-c3ccc(S(C)(=O)=O)cc3)cc2N(C(=O)c2ccco2)C[C@@H]1C [Example I-368] | < 5.00 | < 6.30
C[C@H]1CN(C(=O)c2ccco2)c2cc(-c3ccc(S(C)(=O)=O)cc3)ccc2N1C(=O)N(C)C [Example I-369] | < 5.00 | < 6.30
CC(C)C(=O)N1c2ccc(-c3ccc(S(C)(=O)=O)cc3)cc2N(C(=O)c2ccco2)C[C@@H]1C [Example I-370] | < 5.00 | < 6.30
CCOC(=O)N1c2ccc(-c3ccc(S(C)(=O)=O)cc3)cc2N(C(=O)c2ccco2)C[C@@H]1C [Example I-371] | < 5.00 | < 6.30
CC(C)OC(=O)N1c2ccc(-c3ccc(S(C)(=O)=O)cc3)cc2N(C(=O)c2ccco2)C[C@@H]1C [Example I-372] | < 5.00 | < 6.30
C[C@H]1CN(C(=O)c2ccco2)c2cc(-c3ccc(S(C)(=O)=O)cc3)ccc2N1C(=O)C1CCCC1 [Example I-373] | < 5.00 | < 6.30
C[C@H]1CN(C(=O)c2ccco2)c2cc(-c3ccc(S(C)(=O)=O)cc3)ccc2N1C(=O)C1CCC1 [Example I-374] | 5.00 to 6.00 | < 6.30
C[C@H]1CN(C(=O)c2ccco2)c2cc(-c3ccc(S(C)(=O)=O)cc3)ccc2N1C(=O)c1ccno1 [Example I-375] | < 5.00 | < 6.30
C[C@H]1CN(C(=O)c2ccco2)c2cc(-c3ccc(S(C)(=O)=O)cc3)ccc2N1C(=O)N1CCCC1 [Example I-376] | < 5.00 | < 6.30
CCOC(=O)N1C[C@H](C)N(C(=O)OC)c2ccc(-c3cnn(C4CC4)c3)cc21 [Example I-380] | 6.00 to 7.00 | < 6.30
CC(=O)N1c2ccc(-c3ccccn3)cc2N(C(=O)c2ccco2)C[C@@H]1C [Example I-381] | 5.00 to 6.00 | 6.30 to 7.30
CC(=O)N1c2ccc(-c3ncccn3)cc2N(C(=O)c2ccco2)C[C@@H]1C [Example I-383] | 5.00 to 6.00 | 6.30 to 7.30
CC(=O)N1c2ccc(-c3cnccn3)cc2N(C(=O)c2ccco2)C[C@@H]1C [Example I-384] | 5.00 to 6.00 | 6.30 to 7.30
CC(=O)N1c2ccc(-c3ccc4[nH]ccc4c3)cc2N(C(=O)c2ccco2)CC1C (centres unmarked) [Example I-385] | 5.00 to 6.00 | < 6.30
CC(=O)N1c2ccc(-c3cccc4c3OCC4)cc2N(C(=O)c2ccco2)C[C@@H]1C [Example I-386] | 5.00 to 6.00 | 6.30 to 7.30
CC(=O)N1c2ccc(-c3nccn3C)cc2N(C(=O)c2ccco2)C[C@@H]1C [Example I-388] | < 5.00 | < 6.30
CC(=O)N1c2ccc(-c3cncn3C)cc2N(C(=O)c2ccco2)C[C@@H]1C [Example I-389] | < 5.00 | 6.30 to 7.30
CC(=O)N1c2ccc(-c3cnoc3)cc2N(C(=O)c2ccco2)C[C@@H]1C [Example I-390] | 5.00 to 6.00 | 6.30 to 7.30
CC(=O)N1c2ccc(-c3cnc4ccccn34)cc2N(C(=O)c2ccco2)C[C@@H]1C [Example I-391] | 5.00 to 6.00 | 6.30 to 7.30
CC(=O)N1c2ccc(-c3ccc(C#N)cn3)cc2N(C(=O)c2ccco2)C[C@@H]1C [Example I-392] | 5.00 to 6.00 | 6.30 to 7.30
CC(=O)N1c2ccc(-c3ccc4nnc(C)n4c3)cc2N(C(=O)c2ccco2)C[C@@H]1C [Example I-393] | 5.00 to 6.00 | 6.30 to 7.30
CC(=O)N1c2ccc(-c3ccc4[nH]c(=O)[nH]c4c3)cc2N(C(=O)c2ccco2)CC1C (centres unmarked) [Example I-394] | 6.00 to 7.00 | > 7.30
CC(=O)N1c2ccc(-c3ccc4c(c3)n(C)c(=O)n4C)cc2N(C(=O)c2ccco2)C[C@@H]1C [Example I-395] | 6.00 to 7.00 | > 7.30
CC(=O)N1c2ccc(-c3ccc4nncn4n3)cc2N(C(=O)c2ccco2)C[C@@H]1C [Example I-396] | 5.00 to 6.00 | 6.30 to 7.30
CC(=O)N1c2ccc(-c3ccc4[nH]ccc4n3)cc2N(C(=O)c2ccco2)CC1C (centres unmarked) [Example I-397] | 5.00 to 6.00 | 6.30 to 7.30
